From publication PMC9516332 (Frontiers in Oncology, 2022)
Like-named read-outs stand apart in the source and are kept apart here.

Tests used:
[1] = tested on: 134 cancer cell lines; assay: Cell viability assay (ATPlite, 72 hours), IC50 on cancer cell line panel
[2] = tested on: AP-1060 (ETV6-NTRK3); assay: Cell viability assay; details: read-out: IC50 in cell proliferation assay
[3] = target: panel of 255 wild-type kinases (Homo sapiens, UniProt P08581); assay: Kinase panel profiling at 1 µmol/L (MSA or IMAP), percentage inhibition; type: biochemical; details: MET; 1 µmol/L single concentration
[4] = target: panel of 255 wild-type kinases (Homo sapiens, UniProt Q9Y463); assay: as above; type: biochemical; details: kinase DYRK1B; 1 µmol/L single concentration; read-out: %-inhibition at 1 µmol/L, DYRK1B
[5] = target: T1, panel of 255 wild-type kinases (Homo sapiens, UniProt Q96PF2); assay: as above; type: biochemical; details: kinase TSSK2; 1 µmol/L single concentration; read-out: %-inhibition at 1 µmol/L, TSSK2
T1 sequence (Q96PF2 1-358): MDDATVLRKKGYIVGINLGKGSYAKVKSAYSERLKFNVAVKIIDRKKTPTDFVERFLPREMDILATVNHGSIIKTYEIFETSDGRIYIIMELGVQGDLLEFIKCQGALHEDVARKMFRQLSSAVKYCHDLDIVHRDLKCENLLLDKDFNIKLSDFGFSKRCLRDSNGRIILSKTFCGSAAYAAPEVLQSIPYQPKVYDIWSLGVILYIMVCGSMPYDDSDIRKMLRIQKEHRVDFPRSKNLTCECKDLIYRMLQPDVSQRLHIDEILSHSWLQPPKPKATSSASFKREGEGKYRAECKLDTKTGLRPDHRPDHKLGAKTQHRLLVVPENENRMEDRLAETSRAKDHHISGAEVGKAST

[6] = target: panel of 255 wild-type kinases (Homo sapiens, UniProt P31749); assay: as above; type: biochemical; details: AKT1 kinase assay; 1 µmol/L single concentration; read-out: %-inhibition AKT1
[7] = tested on: 134 cancer cell lines

IC50 ([1]; Homo sapiens, NCCIT, read-out: IC50 in cell proliferation assay, NCC-IT cell line): 4.43 µM
IC50 ([1]; Homo sapiens, NCI-H82, read-out: IC50 in cell proliferation assay, cell line NCI-H82): 3.91 µM
IC50 ([1]; Homo sapiens, NCI-H460, read-out: IC50 in cell proliferation assay, NCI-H460 cell line): 4.69 µM
IC50 ([1]; Homo sapiens, NCI-H661, read-out: IC50 in cell proliferation assay, NCI-H661 cell line): 3.68 µM
IC50 ([1]; Homo sapiens, NCI-H716, read-out: IC50 in cell proliferation assay, cell line NCI-H716 (FGFR2-COL14A1)): 4.91 µM
IC50 ([1]; Homo sapiens, NCI-H1650, read-out: IC50 in cell proliferation assay, NCI-H1650 cell line (EGFR exon19del)): 0.006 µM
IC50 ([1]; Homo sapiens, NCI-H1975, read-out: IC50 in cell proliferation assay, NCI-H1975 cell line (EGFR p.L858R + p.T790M)): 0.153 µM
IC50 ([1]; Homo sapiens, NCI-H2228, read-out: IC50 in cell proliferation assay, NCI-H2228 cell line (EML4-ALK)): 4.89 µM
IC50 ([1]; Homo sapiens, OVCAR-3, read-out: IC50 in cell proliferation assay, cell line OVCAR-3): 0.023 µM
IC50 ([1]; Homo sapiens, PFSK-1, read-out: IC50 in cell proliferation assay, cell line PFSK-1): 4.48 µM
IC50 ([1]; Homo sapiens, RL95-2, read-out: IC50 in cell proliferation assay, cell line RL95-2 (EGFR p.A289V)): 0.008 µM
IC50 ([1]; Homo sapiens, RPMI-7951, read-out: IC50 in cell proliferation assay, cell line RPMI-7951 (BRAF p.V600E)): 3.97 µM
IC50 ([1]; Homo sapiens, RS4-11, read-out: IC50 in cell proliferation assay, cell line RS4;11): 3.36 µM
IC50 ([1]; Homo sapiens, Rec1, read-out: IC50 in cell proliferation assay, cell line REC-1): 0.845 µM
IC50 ([1]; Homo sapiens, SHP77, read-out: IC50 in cell proliferation assay, cell line SHP-77): 5.08 µM
IC50 ([1]; Homo sapiens, SK-BR-3, read-out: IC50 in cell proliferation assay, cell line SK-BR-3 (ERBB2 amplification)): 0.027 µM
IC50 ([1]; Homo sapiens, SK-N-AS, read-out: IC50 in cell proliferation assay, cell line SK-N-AS): 3.08 µM
IC50 ([1]; Homo sapiens, SK-N-FI, read-out: IC50 in cell proliferation assay, cell line SK-N-FI): 3.36 µM
IC50 ([1]; Homo sapiens, SK-N-MC, read-out: IC50 in cell proliferation assay, cell line SK-N-MC): 2.94 µM
IC50 ([1]; Homo sapiens, SK-N-SH, read-out: IC50 in cell proliferation assay, cell line SK-N-SH (ALK p.F1174L)): 2.47 µM
IC50 ([1]; Homo sapiens, SNU-5, read-out: IC50 in cell proliferation assay, cell line SNU-5 (MET amplification)): 3.41 µM
IC50 ([1]; Homo sapiens, SNU-16, read-out: IC50 in cell proliferation assay, cell line SNU-16 (FGFR2 amplification)): 3.88 µM
IC50 ([1]; Homo sapiens, SNU-C2B, read-out: IC50 in cell proliferation assay, cell line SNU-C2B (EGFR p.R165Q)): 5.59 µM
IC50 ([1]; Homo sapiens, SU-DHL-1, read-out: IC50 in cell proliferation assay, cell line SU-DHL-1 (NPM1-ALK)): 3.51 µM
IC50 ([1]; Homo sapiens, SU-DHL-6, read-out: IC50 in cell proliferation assay, cell line SU-DHL-6): 2.55 µM
IC50 ([1]; Homo sapiens, SUP-T1, read-out: IC50 in cell proliferation assay, cell line SUP-T1): 4.54 µM
IC50 ([1]; Homo sapiens, SW48, read-out: IC50 in cell proliferation assay, cell line SW48 (EGFR p.G719S)): 0.000636 µM
IC50 ([1]; Homo sapiens, SW480, read-out: IC50 in cell proliferation assay, cell line SW480): 4.83 µM
IC50 ([1]; Homo sapiens, SW626, read-out: IC50 in cell proliferation assay, cell line SW626): 5.24 µM
IC50 ([1]; Homo sapiens, SW780, read-out: IC50 in cell proliferation assay, cell line SW780 (FGFR3-BAIAP2L1)): 4.61 µM
IC50 ([1]; Homo sapiens, SW837, read-out: IC50 in cell proliferation assay, cell line SW837): 6.48 µM
IC50 ([1]; Homo sapiens, SW872, read-out: IC50 in cell proliferation assay, cell line SW872 (BRAF p.V600E)): 5.03 µM
IC50 ([1]; Homo sapiens, SW900, read-out: IC50 in cell proliferation assay, cell line SW900): 4.74 µM
IC50 ([1]; Homo sapiens, SW948, read-out: IC50 in cell proliferation assay, cell line SW948): 4.8 µM
IC50 ([1]; Homo sapiens, SW982, read-out: IC50 in cell proliferation assay, cell line SW982 (BRAF p.V600E)): 3.94 µM
IC50 ([1]; Homo sapiens, SW-620, read-out: IC50 in cell proliferation assay, cell line SW620): 5.18 µM
IC50 ([1]; Homo sapiens, T98G, read-out: IC50 in cell proliferation assay, cell line T98G): 4.59 µM
IC50 ([1]; Homo sapiens, TCC-SUP, read-out: IC50 in cell proliferation assay, cell line TCCSUP): 3.39 µM
IC50 ([1]; Homo sapiens, THP-1, read-out: IC50 in cell proliferation assay, cell line THP-1): 3.91 µM
IC50 ([1]; Homo sapiens, U2OS, read-out: IC50 in cell proliferation assay, cell line U2OS): 3.31 µM
IC50 ([1]; Homo sapiens, U-87 MG, read-out: IC50 in cell proliferation assay, cell line U-87MG ATCC): 4.41 µM
IC50 ([1]; Homo sapiens, U-118-MG, read-out: IC50 in cell proliferation assay, cell line U-118MG): 3.63 µM
IC50 ([1]; Homo sapiens, UMUC3, read-out: IC50 in cell proliferation assay, cell line UM-UC-3): 3.19 µM
IC50 ([1]; Hs766T, read-out: IC50 in cell proliferation assay, Hs 766T cell line): 5.01 µM
IC50 ([1]; L-82, read-out: IC50 in cell proliferation assay, L-82 cell line (NPM1-ALK)): 1.65 µM
IC50 ([1]; Rh30, read-out: IC50 in cell proliferation assay, cell line Rh30): 3.93 µM
IC50 ([1]; read-out: IC50 in cell proliferation assay, 11-18 cell line (EGFR p.L858R)): 0.002 µM
IC50 ([1]; read-out: IC50 in cell proliferation assay, Hs 852.T cell line): 3.75 µM
IC50 ([1]; read-out: IC50 in cell proliferation assay, JAR cell line): 3.05 µM
IC50 ([1]; read-out: IC50 in cell proliferation assay, cell line 5637): 0.031 µM
IC50 ([1]; read-out: IC50 in cell proliferation assay, cell line A-388): 0.019 µM
IC50 ([1]; read-out: IC50 in cell proliferation assay, cell line DB): 3.6 µM
IC50 ([1]; read-out: IC50 in cell proliferation assay, cell line DEL (NPM1-ALK)): 2.04 µM
IC50 ([1]; read-out: IC50 in cell proliferation assay, cell line ES-2 (BRAF p.V600E)): 2.99 µM
IC50 ([1]; read-out: IC50 in cell proliferation assay, cell line PA-1): 2.7 µM
IC50 ([1]; read-out: IC50 in cell proliferation assay, cell line PC-3): 5.26 µM
IC50 ([1]; read-out: IC50 in cell proliferation assay, cell line RD): 2.53 µM
IC50 ([1]; read-out: IC50 in cell proliferation assay, cell line RKO (BRAF p.V600E)): 3.58 µM
IC50 ([1]; read-out: IC50 in cell proliferation assay, cell line RL): 4.15 µM
IC50 ([1]; read-out: IC50 in cell proliferation assay, cell line RT-4 (FGFR3-TACC3)): 0.014 µM
IC50 ([1]; read-out: IC50 in cell proliferation assay, cell line SR (NPM1-ALK)): 3.55 µM
IC50 ([1]; read-out: IC50 in cell proliferation assay, cell line T24): 3.02 µM
IC50 ([1]; read-out: IC50 in cell proliferation assay, cell line TT (RET p.C634W)): 4.83 µM
IC50 ([1]; read-out: IC50 in cell proliferation assay, cell line VA-ES-BJ): 3.55 µM
inhibition at 1 µM [3]: 24%
inhibition at 1 µM [4]: 7%
inhibition at 1 µM [5]: 1.2%
inhibition at 1 µM [6]: -22%
IC50 [7]: 0.018 µM
Structure (SMILES): COc1cc2ncnc(Nc3ccc(F)c(Cl)c3)c2cc1NC(=O)/C=C/CN1CCCCC1 [dacomitinib]
IC50 [2]: 3.46 µM
